Our source for the IC50 values is ChEMBL document CHEMBL1146012, “5-benzylidene-hydantoins as new EGFR inhibitors with antiproliferative activity” (Bioorg Med Chem Lett, 2006).

This test has as its target Epidermal growth factor receptor (Homo sapiens, UniProt P00533). As to the kind of experiment: Inhibition of EGFR-mediated polyGAT phosphorylation at 10 uM.

Epidermal growth factor receptor, sequence (P00533 whole entry): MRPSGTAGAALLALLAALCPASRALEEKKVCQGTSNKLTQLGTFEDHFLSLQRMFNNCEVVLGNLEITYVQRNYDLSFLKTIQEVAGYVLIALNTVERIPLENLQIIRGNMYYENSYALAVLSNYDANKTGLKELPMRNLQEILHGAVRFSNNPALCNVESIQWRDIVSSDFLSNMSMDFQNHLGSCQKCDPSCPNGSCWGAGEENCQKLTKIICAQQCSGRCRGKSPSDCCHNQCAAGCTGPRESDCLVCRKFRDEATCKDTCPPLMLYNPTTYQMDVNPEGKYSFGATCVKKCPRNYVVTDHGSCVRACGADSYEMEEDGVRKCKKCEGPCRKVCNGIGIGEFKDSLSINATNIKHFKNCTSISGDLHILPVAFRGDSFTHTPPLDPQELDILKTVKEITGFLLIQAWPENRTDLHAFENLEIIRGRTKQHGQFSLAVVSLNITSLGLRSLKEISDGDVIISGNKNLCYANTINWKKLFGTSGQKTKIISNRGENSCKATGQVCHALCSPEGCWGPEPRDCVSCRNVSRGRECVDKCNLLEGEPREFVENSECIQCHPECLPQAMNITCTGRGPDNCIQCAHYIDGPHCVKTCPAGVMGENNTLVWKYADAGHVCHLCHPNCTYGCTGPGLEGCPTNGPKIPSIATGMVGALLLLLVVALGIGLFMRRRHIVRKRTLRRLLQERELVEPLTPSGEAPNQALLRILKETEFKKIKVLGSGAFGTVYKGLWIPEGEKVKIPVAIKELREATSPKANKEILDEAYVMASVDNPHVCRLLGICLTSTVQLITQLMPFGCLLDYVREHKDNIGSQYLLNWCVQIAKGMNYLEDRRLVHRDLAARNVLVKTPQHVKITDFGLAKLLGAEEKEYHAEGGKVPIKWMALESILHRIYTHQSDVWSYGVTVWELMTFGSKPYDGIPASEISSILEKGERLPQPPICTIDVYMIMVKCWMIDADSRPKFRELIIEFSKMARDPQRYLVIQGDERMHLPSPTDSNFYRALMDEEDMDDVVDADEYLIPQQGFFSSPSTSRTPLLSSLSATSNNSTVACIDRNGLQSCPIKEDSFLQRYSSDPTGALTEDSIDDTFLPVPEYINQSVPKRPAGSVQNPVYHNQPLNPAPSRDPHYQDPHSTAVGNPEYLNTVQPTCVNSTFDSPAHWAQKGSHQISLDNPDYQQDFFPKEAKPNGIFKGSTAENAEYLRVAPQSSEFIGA

As a reminder, the IC50 is the point on the concentration scale where inhibition reaches its midpoint. Read a low IC50 as inhibition by little substance. In turn, `O=C1NC(=O)N(CCc2ccccc2)/C1=C/c1ccc(O)cc1` yielded an IC50 of 710 nM.
